Source: US20130266605A1, “PEPTIDE INHIBITORS OF CD40L SIGNALING AND USES THEREFOR” (PHYLOGICA LIMITED, priority 2010, published 2013)
Read-outs that look alike come from different tables or passages of the source. Values belong to the molecule of their own block, whether it stands above or below them. Positions of bridges follow the written chain, without caps; N, C: chain ends. Non-standard residues stand in square brackets, D forms with d. Residues, ends and D or L forms follow the SMILES beside them. Chains are numbered I, II in the order given. No end group written: not given here. AEEA = NCCOCCOCC(=O)O

Tests used:
[1] = target: CD40L-induced CD86 expression on primary B-cells (UniProt P29965); assay: Inhibition of CD40L-induced CD86 expression on primary B-cells (FACS); settings: for inhibition of CD40L-induced CD86 expression on primary B-cells: in words
Sequence of CD40L-induced CD86 expression on primary B-cells (P29965 whole entry): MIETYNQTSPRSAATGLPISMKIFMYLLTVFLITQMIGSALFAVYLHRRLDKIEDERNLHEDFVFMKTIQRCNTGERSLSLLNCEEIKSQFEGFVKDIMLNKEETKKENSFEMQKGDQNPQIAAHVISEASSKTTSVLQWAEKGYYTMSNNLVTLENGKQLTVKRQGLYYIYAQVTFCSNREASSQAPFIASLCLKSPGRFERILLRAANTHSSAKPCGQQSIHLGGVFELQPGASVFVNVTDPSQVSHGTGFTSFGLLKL
Sequence of CD40L-induced CD86 expression on primary B-cells (P25942 21-277 partner): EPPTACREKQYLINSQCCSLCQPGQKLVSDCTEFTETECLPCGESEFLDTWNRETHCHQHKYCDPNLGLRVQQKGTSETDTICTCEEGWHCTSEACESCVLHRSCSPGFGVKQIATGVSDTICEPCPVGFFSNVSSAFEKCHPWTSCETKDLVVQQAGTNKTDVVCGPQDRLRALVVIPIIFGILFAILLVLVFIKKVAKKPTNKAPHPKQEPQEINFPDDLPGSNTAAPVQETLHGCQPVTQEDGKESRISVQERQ
Experimental: In one example, the ability of a peptide, analog or derivative of the invention to inhibit or reduce or delay expression of CD86 on primary B-cells was determined in the presence and absence of the peptides, analogs and derivatives of the invention. In particular, CD86 expression was determined by FACS.
As a control in these assays, LPS-induced expression of CD86 mediated by the Toll-like receptors TLR 2/4, and TNFα-induced cytoxicity, were also assayed to exclude effects mediated by ligands other than CD40L.

CD40L-CD40 interaction = target: T1, CD40L-CD40 interaction (Homo sapiens, UniProt P29965); assay: Chemiluminescent proximity assay (Alphascreen); assay type: binding; settings: for inhibition of the interaction between CD40L and CD40: in words, Alphascreen proximity assay
T1 sequence (P29965 113-261 limits assumed): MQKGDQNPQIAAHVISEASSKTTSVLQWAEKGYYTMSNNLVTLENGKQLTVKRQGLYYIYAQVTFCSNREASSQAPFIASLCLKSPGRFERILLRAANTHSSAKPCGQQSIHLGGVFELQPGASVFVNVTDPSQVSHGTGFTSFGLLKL
Experimental: In one example, the Alphascreen assay (PerkinElmer) was employed according to the manufacturer's instructions.
Homodimers and heterodimers were also assayed by chemiluminescent proximity assay for their ability to inhibit CD40L-CD40 interaction.

CD40 ligand = target: T2, CD40 ligand (UniProt P29965 108-261, limits assumed); assay: Alphascreen, unmodified peptide, inhibition of CD40L/CD40-Fc
T2 construct: Used immobilised, soluble, or biotinylated on streptavidin beads; also called CD154; soluble CD40L
T2 sequence (looked up): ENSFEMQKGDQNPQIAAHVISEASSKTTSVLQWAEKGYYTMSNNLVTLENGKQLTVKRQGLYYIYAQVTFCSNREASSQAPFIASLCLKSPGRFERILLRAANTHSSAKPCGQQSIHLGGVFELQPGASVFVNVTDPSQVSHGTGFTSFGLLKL

[2] = PEGylated chiral (retro-inverted) analog, read-out: EC50(PEGylated) CD40L/CD40-Fc/BAF617
[3] = read-out: EC50 PEGylated peptide, PEGylated monomeric peptide

inhibition of CD40L-induced CD86 expression on primary B-cells [1]: enhanced inhibition
Molecule: CC[C@@H](C)[C@@H](NC(=O)[C@@H](Cc1ccccc1)NC(=O)[C@@H](C)NC(=O)[C@H](NC(=O)[C@@H](CC(C)C)NC(=O)[C@H]1CCCN1C(=O)[C@@H](Cc1ccccc1)NC(=O)[C@@H](CCC(N)=O)NC(=O)[C@@H](Cc1ccc(O)cc1)NC(=O)[C@@H](CC(C)C)NC(=O)[C@@H](Cc1c[nH]cn1)NC(=O)[C@@H](CCCNC(=N)N)NC(=O)[C@@H](CS)NC(=O)[C@H](N)CCCNC(=N)N)C(C)C)C(=O)N[C@H](CO)C(=O)N[C@H](Cc1c[nH]c2ccccc12)C(=O)N[C@H](CCC(N)=O)C(=O)N[C@@H](C(=O)N1CCC[C@@H]1C(=O)N[C@H](Cc1ccccc1)C(=O)N[C@H](Cc1ccccc1)C(=O)N[C@H](Cc1c[nH]c2ccccc12)C(=O)NCC(=O)N[C@H](Cc1ccc(O)cc1)C(=O)N[C@H](CCCCN)C(=O)N[C@H](CC(C)C)C(=O)N[C@@H](C(=O)N[C@H](Cc1c[nH]cn1)C(=O)N[C@H](CO)C(=O)N[C@H](CCCNC(=N)N)C(=O)N[C@H](Cc1ccc(O)cc1)C(=O)N1CCC[C@@H]1C(=O)N[C@@H](C(=O)N[C@H](Cc1ccccc1)C(=O)N1CCC[C@@H]1C(=O)N[C@H](CC(C)C)C(=O)O)C(C)C)C(C)C)C(C)C [CD40L M1_18rd] (H-[dR][dC][dR][dH][dL][dY][dQ][dF][dP][dL][dV][dA][dF][dI][dS][dW][dQ][dV][dP][dF][dF][dW]G[dY][dK][dL][dV][dH][dS][dR][dY][dP][dV][dF][dP][dL]-OH; N-terminus and C-terminus assumed)

EC50 (CD40L-CD40 interaction; monomeric non-PEGylated (unmodified) base peptide; 50% reduction in control emission at 520-620 nm; read-out: EC50nmodified) CD40L/CD40-Fc/BAF617): 120 nM
Molecule: CC[C@H](C)[C@H](NC(=O)[C@H](CO)NC(=O)[C@H](Cc1ccccc1)NC(=O)[C@@H]1CCCN1C(=O)[C@@H]1CCCN1C(=O)[C@H](CO)NC(=O)[C@H](Cc1ccccc1)NC(=O)[C@H](Cc1ccccc1)NC(=O)[C@H](Cc1ccccc1)NC(=O)[C@H](CC(C)C)NC(=O)[C@H](CC(C)C)NC(=O)[C@@H](N)CC(C)C)C(=O)N[C@@H](Cc1ccccc1)C(=O)N[C@@H](CS)C(=O)N[C@@H](Cc1ccccc1)C(=O)N[C@@H](CO)C(=O)N[C@@H](CC(C)C)C(=O)N[C@H](C(=O)N[C@H](C(=O)N[C@@H](CC(C)C)C(=O)N[C@@H](CO)C(=O)O)[C@@H](C)O)[C@@H](C)O [CD40L M7_189] (H-LLLFFFSPPFSIFCFSLTTLS-OH)

inhibition of CD40L-induced CD86 expression on primary B-cells [1]: enhanced inhibition
inhibition of the interaction between CD40L and CD40 (CD40L-CD40 interaction; listed as 6-189 dimer): enhanced inhibition
inhibition of the interaction between CD40L and CD40 (CD40L-CD40 interaction; listed as 6-189 high purity dimer): inhibition
Molecule: I: H-C[AEEA]LLLFFFSPPFSIFSFSLTTLS / II: H-C[AEEA]HPFSIKNVFSIWNFFSVY (disulfide I:1-II:1) [Cys_M1_6S-Cys_M1_189S heterodimer]

inhibition of the interaction between CD40L and CD40 (CD40L-CD40 interaction): inhibition
Molecule: CC[C@H](C)[C@H](NC(=O)[C@H](CS)NC(=O)[C@H](Cc1ccccc1)NC(=O)[C@@H](NC(=O)[C@H](CC(N)=O)NC(=O)[C@H](CCCCN)NC(=O)[C@@H](NC(=O)[C@H](CO)NC(=O)[C@H](Cc1ccccc1)NC(=O)[C@@H]1CCCN1C(=O)[C@@H](N)Cc1c[nH]cn1)[C@@H](C)CC)C(C)C)C(=O)N[C@@H](Cc1c[nH]c2ccccc12)C(=O)N[C@@H](CC(N)=O)C(=O)N[C@@H](Cc1ccccc1)C(=O)N[C@@H](Cc1ccccc1)C(=O)N[C@@H](CO)C(=O)N[C@H](C(=O)N[C@@H](Cc1ccc(O)cc1)C(=O)O)C(C)C [CD40L M1_6] (H-HPFSIKNVFCIWNFFSVY-OH; N-terminus and C-terminus assumed)

EC50 (CD40L-CD40 interaction; [2]): 24 nM
Molecule: AQWWHHRFSFLGAIQFFERGAAD [CD40L M1_30rd]

EC50 [1, 3]: 2000 nM
EC50 (CD40L-CD40 interaction; [2]): 12 nM
Molecule: FHRMYVILQIIWFITPRWTFP [CD40L M7_206rd]

inhibition of CD40L-induced CD86 expression on primary B-cells [1]: enhanced inhibition
inhibition of the interaction between CD40L and CD40 (CD40L-CD40 interaction; listed as 6-9 dimer): enhanced inhibition
inhibition of the interaction between CD40L and CD40 (CD40L-CD40 interaction; listed as 6-9 high purity dimer): inhibition
Molecule: I: H-C[AEEA]PPRYNLFFLFRFYSSFRRDYLYF / II: H-C[AEEA]HPFSIKNVFSIWNFFSVY (disulfide I:1-II:1) [Cys_M1_6S-Cys_M1_9S heterodimer]

EC50 (CD40L-CD40 interaction; [2]): 568 nM
Molecule: RVWNSFWLHIGGRQVGSPVFLSYFRNRVWRP [CD40L M1_50rd]

EC50 (CD40L-CD40 interaction; [2]): 14 nM
Molecule: FYLYDRRFSSYFRFLFFLNYRPP [CD40L M1_9rd]

inhibition of CD40L-induced CD86 expression on primary B-cells [1]: concentration-dependent inhibition
Molecule: CC[C@H](C)[C@H](NC(=O)[C@H](CO)NC(=O)[C@H](Cc1c[nH]c2ccccc12)NC(=O)[C@H](CCC(N)=O)NC(=O)[C@@H](NC(=O)[C@@H]1CCCN1C(=O)[C@H](Cc1ccccc1)NC(=O)[C@H](Cc1ccccc1)NC(=O)[C@H](Cc1c[nH]c2ccccc12)NC(=O)CNC(=O)[C@H](Cc1ccc(O)cc1)NC(=O)[C@H](CCCCN)NC(=O)[C@H](CC(C)C)NC(=O)[C@@H](NC(=O)[C@H](Cc1c[nH]cn1)NC(=O)[C@H](CO)NC(=O)[C@H](CCCNC(=N)N)NC(=O)[C@H](Cc1ccc(O)cc1)NC(=O)[C@@H]1CCCN1C(=O)[C@@H](NC(=O)[C@H](Cc1ccccc1)NC(=O)[C@@H]1CCCN1C(=O)[C@@H](N)CC(C)C)C(C)C)C(C)C)C(C)C)C(=O)N[C@@H](Cc1ccccc1)C(=O)N[C@@H](C)C(=O)N[C@H](C(=O)N[C@@H](CC(C)C)C(=O)N1CCC[C@H]1C(=O)N[C@@H](Cc1ccccc1)C(=O)N[C@@H](CCC(N)=O)C(=O)N[C@@H](Cc1ccc(O)cc1)C(=O)N[C@@H](CC(C)C)C(=O)N[C@@H](Cc1c[nH]cn1)C(=O)N[C@@H](CCCNC(=N)N)C(=O)N[C@@H](CS)C(=O)N[C@@H](CCCNC(=N)N)C(=O)O)C(C)C [CD40L M1_18] (H-LPFVPYRSHVLKYGWFFPVQWSIFAVLPFQYLHRCR-OH; N-terminus and C-terminus assumed)

inhibition of CD40L-induced CD86 expression on primary B-cells [1]: enhanced inhibition
inhibition of the interaction between CD40L and CD40 (CD40L-CD40 interaction; listed as 6-6 dimer): enhanced inhibition
inhibition of the interaction between CD40L and CD40 (CD40L-CD40 interaction; listed as homodimer of the Phylomer peptide M1—6): inhibition
Molecule: CC[C@H](C)[C@H](NC(=O)[C@H](CO)NC(=O)[C@H](Cc1ccccc1)NC(=O)[C@@H](NC(=O)[C@H](CC(N)=O)NC(=O)[C@H](CCCCN)NC(=O)[C@@H](NC(=O)[C@H](CO)NC(=O)[C@H](Cc1ccccc1)NC(=O)[C@@H]1CCCN1C(=O)[C@H](Cc1c[nH]cn1)NC(=O)COCCOCCNC(=O)[C@@H](N)CSSC[C@H](N)C(=O)NCCOCCOCC(=O)N[C@@H](Cc1c[nH]cn1)C(=O)N1CCC[C@H]1C(=O)N[C@@H](Cc1ccccc1)C(=O)N[C@@H](CO)C(=O)N[C@H](C(=O)N[C@@H](CCCCN)C(=O)N[C@@H](CC(N)=O)C(=O)N[C@H](C(=O)N[C@@H](Cc1ccccc1)C(=O)N[C@@H](CO)C(=O)N[C@H](C(=O)N[C@@H](Cc1c[nH]c2ccccc12)C(=O)N[C@@H](CC(N)=O)C(=O)N[C@@H](Cc1ccccc1)C(=O)N[C@@H](Cc1ccccc1)C(=O)N[C@@H](CO)C(=O)N[C@H](C(=O)N[C@@H](Cc1ccc(O)cc1)C(=O)O)C(C)C)[C@@H](C)CC)C(C)C)[C@@H](C)CC)[C@@H](C)CC)C(C)C)C(=O)N[C@@H](Cc1c[nH]c2ccccc12)C(=O)N[C@@H](CC(N)=O)C(=O)N[C@@H](Cc1ccccc1)C(=O)N[C@@H](Cc1ccccc1)C(=O)N[C@@H](CO)C(=O)N[C@H](C(=O)N[C@@H](Cc1ccc(O)cc1)C(=O)O)C(C)C [Cys_M1_6S homodimer] (I: H-C[AEEA]HPFSIKNVFSIWNFFSVY-OH / II: H-C[AEEA]HPFSIKNVFSIWNFFSVY-OH; disulfide I:1-II:1; C-terminus assumed)

EC50 [1, 3]: 470 nM
EC50 (CD40L-CD40 interaction; [2]): 10 nM
Molecule: VHSYYVWILQFYYKFRSYRWHYQIS [CD40L M1_82rd]

EC50 (CD40L-CD40 interaction; [2]): 16 nM
Molecule: SKVRMQFDIINFPVNVGFLVFSH [CD40L M1_42rd]

EC50 (CD40L-CD40 interaction; [2]): 20 nM
Molecule: YVSFFNWISFVNKISFPH [CD40L M1_6rd]

EC50 ([1]; read-out: EC50 value of CD40L induction of CD86 expression, absence of a peptidyl inhibitor): ~9 nM
B1: CD40L: CD40 ligand used to induce CD86 expression on primary B-cells (protein)
chain: ENSFEMQKGDQNPQIAAHVISEASSKTTSVLQWAEKGYYTMSNNLVTLENGKQLTVKRQGLYYIYAQVTFCSNREASSQAPFIASLCLKSPGRFERILLRAANTHSSAKPCGQQSIHLGGVFELQPGASVFVNVTDPSQVSHGTGFTSFGLLKL

EC50 (CD40 ligand): 120 nM
Molecule: LLYVKVICFFCMLVQYNNFQTYK (Base peptide) [CD40L M2_159]

EC50 (CD40 ligand): 200 nM
Molecule: HSFVLFGVNVPFNIIDFQMRVKC (Base peptide) [CD40L M1_42]
